The record followed here is ChEMBL document CHEMBL1201862, “PubChem BioAssay data set” (2004).

Test systems include 786-0; ACHN; COLO 205; EKVX; HCT-15; HOP-62; KM12; NCI-H23; OVCAR-3; OVCAR-8; RXF 393; SF-539; SNB-75; U-251; UACC-62; CAKI-1; OVCAR-4; RPMI-8226; SF-295.
What all share (experiment): NCI tumour cell line growth inhibition, 48 h

Each structure is given as a SMILES string.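 Protocol summary: plate cells (96-well), add compound at 5 concentrations, incubate 48 h, interpolate endpoints linearly. GI50 is the concentration that inhibits growth by half.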 Active and inactive are the calls of the source. Cut-off read from the data, not from the text of the source: active = GI50 up to about 1.1 µM and inactive = higher. Bounds are passed on as bounds.

For the compound `CC1CC2=Nc3ccccc3NC(c3ccccc3)C2=C(O)O1` (configuration not stated), the GI50 with 786-0 was > 100 µM (inactive); in the experiment with ACHN it was > 100 µM (inactive); in the experiment with COLO 205, > 100 µM (inactive); in the experiment on EKVX, > 100 µM (inactive); with HCT-15, > 100 µM; in the experiment on HOP-62, > 100 µM (inactive). In addition, the GI50 with KM12, in the experiment on NCI-H23, with OVCAR-3, in the experiment with OVCAR-8, in the experiment on RXF 393 and in the experiment on SF-539 was > 100 µM (inactive) throughout. Also, the results for the GI50 in the experiment with SNB-75, with U-251 and with UACC-62 were > 100 µM (inactive), > 100 µM (inactive) and 93.8 µM (inactive), respectively.

In the case of `CSc1nc(NC(=O)O)c(N(C(C)=O)C(=O)O)c(=O)n1C`, the GI50 with 786-0 is > 100 µM (inactive); in the experiment with ACHN it was > 100 µM (inactive); with CAKI-1, > 100 µM (inactive); with COLO 205 it was > 100 µM (inactive); in the experiment with EKVX, > 100 µM (inactive); in the experiment with HCT-15, > 100 µM. Besides, the GI50 in the experiment on KM12, in the experiment on OVCAR-3, in the experiment on OVCAR-4, in the experiment with OVCAR-8, with RPMI-8226 and in the experiment with RXF 393 was > 100 µM (inactive) throughout. Also, the GI50 in the experiment with SF-295, in the experiment with SF-539, with U-251 and with UACC-62 was > 100 µM (inactive) throughout.

As to `Cc1cc(Cl)ccc1/N=C1/NC(=O)C(CC(=O)Nc2cccc(C)c2C)S1` (configuration not stated), the GI50 is 20.8 µM (inactive) with 786-0; 26 µM (inactive) in the experiment on ACHN; 23.6 µM (inactive) in the experiment on CAKI-1; 24.3 µM (inactive) in the experiment on COLO 205; 37.8 µM (inactive) in the experiment with EKVX; 28.4 µM in the experiment with HCT-15. Besides, the GI50 in the experiment with HOP-62 is 24 µM (inactive); in the experiment with KM12 it was 32.4 µM (inactive); in the experiment on NCI-H23 it was 18.2 µM (inactive); in the experiment with OVCAR-3 it was 31.2 µM (inactive); with OVCAR-4, 26.7 µM (inactive); in the experiment with OVCAR-8 it was 26.5 µM (inactive). For the same compound, the GI50 is 19.7 µM (inactive) in the experiment with RPMI-8226; 28 µM (inactive) in the experiment on SF-295; 21.5 µM (inactive) in the experiment with SF-539; 19.9 µM (inactive) with SNB-75; 26.2 µM (inactive) with U-251; 25.9 µM (inactive) with UACC-62.

In the case of `CN1C(=O)NC2(O)c3ccccc3C(=O)C12O` (configuration not stated), the GI50 in the experiment with 786-0 is > 100 µM (inactive); in the experiment with CAKI-1 it was > 100 µM (inactive); in the experiment with COLO 205 it was > 100 µM (inactive); in the experiment on EKVX, > 100 µM (inactive); in the experiment with HCT-15, > 100 µM; in the experiment on KM12, > 100 µM (inactive). Moreover, the GI50 in the experiment on NCI-H23, with OVCAR-3, in the experiment on OVCAR-4, in the experiment with OVCAR-8, in the experiment on RPMI-8226 and in the experiment on SF-295 was > 100 µM (inactive) throughout. The GI50 in the experiment on SNB-75, in the experiment on U-251 and in the experiment with UACC-62 was > 100 µM (inactive) throughout.

For `CCCCC1=CSC(c2ccccc2)=C(c2ccccc2)S1`, the GI50 with 786-0 is 87.5 µM (inactive); with COLO 205 it was > 100 µM (inactive); in the experiment with EKVX, > 100 µM (inactive); in the experiment on HCT-15 it was 26.2 µM; with KM12, 42.3 µM (inactive); in the experiment with NCI-H23 it was 36.1 µM (inactive). Moreover, the GI50 with OVCAR-3 is 60.4 µM (inactive); in the experiment with OVCAR-4, 37.6 µM (inactive); with OVCAR-8, 73.8 µM (inactive); in the experiment on RPMI-8226, 9.23 µM (inactive); in the experiment with SF-295 it was 36.5 µM (inactive); with SF-539, > 100 µM (inactive). The GI50 with SNB-75 is 57 µM (inactive); in the experiment with U-251 it was 30.9 µM (inactive); with UACC-62, 40.5 µM (inactive).

As to `COc1ccc(NC(=O)CC(=O)n2nc(C)c(/N=N/c3ccccc3C(=O)O)c2C)cc1`, the GI50 with 786-0 is 77.3 µM (inactive); in the experiment with CAKI-1 it was > 100 µM (inactive); with COLO 205 it was > 100 µM (inactive); in the experiment with EKVX, > 100 µM (inactive); in the experiment on HCT-15 it was > 100 µM; in the experiment with HOP-62 it was > 100 µM (inactive). Further, the GI50 in the experiment on KM12, in the experiment on NCI-H23, in the experiment with OVCAR-3, in the experiment with OVCAR-4, with OVCAR-8 and in the experiment with RPMI-8226 was > 100 µM (inactive) in each case. The GI50 in the experiment on SF-295 was > 100 µM (inactive); in the experiment on SF-539, > 100 µM (inactive); with SNB-75 it was 33 µM (inactive); with U-251, > 100 µM (inactive); with UACC-62, > 100 µM (inactive).

Take `CC(=O)O[C@H]1CC[C@@]2(C)C(=CC[C@@H]3C2CC[C@]2(C)C(=O)NC(=O)CC32)C1` (some centres not stated): the GI50 with 786-0 is 63.5 µM (inactive); with ACHN, > 100 µM (inactive); with CAKI-1, > 100 µM (inactive); in the experiment with COLO 205, > 100 µM (inactive); in the experiment with EKVX, > 100 µM (inactive); in the experiment with HCT-15, 68.4 µM. Further, the GI50 is > 100 µM (inactive) with HOP-62; > 100 µM (inactive) in the experiment with KM12; > 100 µM (inactive) in the experiment with NCI-H23; > 100 µM (inactive) in the experiment with OVCAR-4; > 100 µM (inactive) with OVCAR-8; 35.5 µM (inactive) with RXF 393. In addition, the GI50 is > 100 µM (inactive) with SF-295; > 100 µM (inactive) with SF-539; > 100 µM (inactive) in the experiment with SNB-75; 58.6 µM (inactive) in the experiment on U-251; > 100 µM (inactive) with UACC-62.

Turning to `C=C/C=C/NC(=O)OCc1ccccc1`, the GI50 in the experiment with 786-0, with ACHN, in the experiment with CAKI-1, in the experiment with COLO 205, with EKVX and with HOP-62 was > 100 µM (inactive) each time. Further, the GI50 with KM12 was > 100 µM (inactive); in the experiment on OVCAR-3, > 100 µM (inactive); with OVCAR-4 it was > 100 µM (inactive); in the experiment with OVCAR-8 it was > 100 µM (inactive); in the experiment with RPMI-8226, 82.8 µM (inactive); in the experiment with RXF 393, > 100 µM (inactive). The GI50 in the experiment on SF-295, in the experiment on SNB-75, in the experiment on U-251 and in the experiment with UACC-62 was > 100 µM (inactive) throughout.

`CC(=O)NC1=C(NCC(C)(C)C)C(=O)c2ccccc2C1=O`: the GI50 in the experiment on 786-0 is > 100 µM (inactive); in the experiment with ACHN it was 26.9 µM (inactive); with COLO 205, 39.3 µM (inactive); in the experiment with EKVX, 76.9 µM (inactive); in the experiment with HCT-15, 55.3 µM; in the experiment with HOP-62, > 100 µM (inactive). Besides, the GI50 was 82.6 µM (inactive) in the experiment with KM12; 56.5 µM (inactive) in the experiment with NCI-H23; 55.2 µM (inactive) with OVCAR-3; > 100 µM (inactive) with OVCAR-4; 70.6 µM (inactive) with OVCAR-8; 37 µM (inactive) in the experiment with RXF 393. In addition, the GI50 with SF-295 was > 100 µM (inactive); with SF-539 it was 32.9 µM (inactive); in the experiment with SNB-75 it was 96.6 µM (inactive); with U-251, 65 µM (inactive); in the experiment on UACC-62, 39 µM (inactive).

Turning to `Cc1ccc(C2=C(c3ccccc3)C(Br)(c3ccc(C)cc3)C(c3ccccc3)=C2c2ccc(C)cc2)cc1`, the GI50 in the experiment with 786-0 was > 100 µM (inactive); in the experiment with ACHN, > 100 µM (inactive); with CAKI-1 it was > 100 µM (inactive); with COLO 205, > 100 µM (inactive); with EKVX, > 100 µM (inactive); in the experiment on HCT-15, > 100 µM. The GI50 with HOP-62, in the experiment with KM12, in the experiment with NCI-H23, in the experiment on OVCAR-3, with OVCAR-4 and in the experiment with OVCAR-8 was > 100 µM (inactive) throughout. Also, the GI50 in the experiment on RPMI-8226, in the experiment on SF-295, in the experiment with SF-539, in the experiment with U-251 and in the experiment on UACC-62 was > 100 µM (inactive) each time.

On to `CC(C(=O)C(C)O[Si](c1ccccc1)(c1ccccc1)C(C)(C)C)=P(c1ccccc1)(c1ccccc1)c1ccccc1` (configuration not stated), for which the GI50 in the experiment on 786-0 was 4.06 µM (inactive); with ACHN it was 4.08 µM (inactive); in the experiment with CAKI-1, 3.21 µM (inactive); with COLO 205, 1.8 µM (inactive); with EKVX, 12.9 µM (inactive); in the experiment on HCT-15, 5.64 µM. The GI50 in the experiment with HOP-62 was 3.09 µM (inactive); in the experiment on KM12, 3.61 µM (inactive); with NCI-H23, 3.23 µM (inactive); in the experiment with OVCAR-3 it was 2.9 µM (inactive); in the experiment on OVCAR-4, 3.37 µM (inactive); in the experiment on OVCAR-8, 3.82 µM (inactive). The GI50 with RPMI-8226 is 2.34 µM (inactive); in the experiment on SF-295 it was 3.33 µM (inactive); with SF-539 it was 3.89 µM (inactive); with SNB-75, 3.41 µM (inactive); with U-251, 4.01 µM (inactive); in the experiment on UACC-62, 3.94 µM (inactive).

For `CC1CCCCc2nc3c(c(=O)n21)CCCC3` (configuration not stated), the GI50 in the experiment with 786-0 is > 100 µM (inactive); with ACHN, > 100 µM (inactive); in the experiment with CAKI-1 it was > 100 µM (inactive); with COLO 205, > 100 µM (inactive); in the experiment with HCT-15, > 100 µM; in the experiment with HOP-62, > 100 µM (inactive). Moreover, the GI50 was > 100 µM (inactive) with KM12; > 100 µM (inactive) in the experiment with NCI-H23; > 100 µM (inactive) in the experiment with OVCAR-3; > 100 µM (inactive) in the experiment with OVCAR-4; 63.2 µM (inactive) in the experiment with OVCAR-8; > 100 µM (inactive) in the experiment on SF-295. Besides, the GI50 with SF-539, in the experiment with SNB-75, in the experiment with U-251 and in the experiment with UACC-62 was > 100 µM (inactive) in each case.
